Patent US9695481B2, “Polynucleotides comprising a reporter sequence operatively linked to a regulatory element” (UNIVERSITEIT LEIDEN, priority 2010, dated 2017)
“Also recorded” adds a separate entry of the source. Counter-ions that a name gives are not always drawn. Like-named read-outs stand apart in the source and are kept apart here.

What was measured:
[1] = system: Bscl2-GFP mES reporter cells
[2] = system: Srxn1-GFP mES reporter cells
[3] = system: Bscl2-GFP and Srxn1-GFP mES reporter cells
[4] = system: mouse ES cell lines containing a DsRed fluorescent reporter; conditions: cited from earlier work
[5] = cited from earlier work
[6] = Genotoxicity profile; data extracted from Kirkland et al. 2008; cited from earlier work
[7] = system: Srxn1-GFP mES reporter cells; assay: Srxn1-GFP oxidative stress reporter; conditions: for Srxn1-GFP reporter induction: 24 h exposure, flow cytometry
[8] = system: Salmonella; conditions: cited from earlier work
[9] = system: mouse ES cell lines containing a DsRed fluorescent reporter
[10] = system: Bscl2-GFP mES reporter cells; assay: Bscl2-GFP genotoxicity reporter; conditions: for effect on Bscl2-GFP reporter activation by CisPt or Aph: 10 uM CisPt or 1.5 uM Aph, 24 h; for Bscl2-GFP reporter induction: 24 h exposure
[11] = system: ATM and ATR signaling pathways (phospho-Kap1, phospho-Chk1, phospho-p53); assay type: cell-based, mouse; conditions: Western blot, 24 h
Procedure: Mouse ES cells were propagated on irradiated primary mouse embryonic fibroblasts as feeders according to established protocols. […] For analysis of compounds that require metabolic activation, cells were exposed for 3 h in the presence of 1% S9 rat liver extract in 3.2 mM KCl, 0.8 mM MgCl2, 0.5 mM glucose-6-phosphate and 0.4 mM NADP.
Activation of the ATM and ATR signaling pathways in response to CisPt and Aph was determined by Western blot analysis. […] Proteins were transferred to PVDF membrane (Millipore) and detected using antibodies against phospho-Kap1 (Bethyl laboratories), phospho-Chk1 (Bethyl laboratories), phospho-p53 (Cell signaling) or Hprt (Santa Cruz) as protein loading control. Proteins were visualized using enhanced chemoluminescence (ECL).

[12] = Genotoxicity profile, data extracted from Kirkland et al. 2008
[13] = from which GFP reporter is induced

Compound: NC(=O)NO [HU, Hydroxyurea]
- Bscl2-GFP reporter induction [1]: significant induction of GFP expression
- Srxn1-GFP reporter induction [2]: slight reporter activation

Compound: Mitomycin C
- Srxn1-GFP reporter induction [2]: also induced by the genotoxic compounds, albeit to a lesser extent
- Bscl2-GFP/Srxn1-GFP GFP Induction [3]: Pos. (key: Pos.: considered positive when exposure to at least two different concentrations of a compound resulted in >1.5 fold induction of GFP expression)
- Bscl2-GFP/Srxn1-GFP Prim. toxic properties [3]: Genotoxin
- GFP expression in Srxn1, Bscl2 and Btg2 GFP reporter cell lines [3]: increased

Compound: [Cl][Cd][Cl] [Cadmium Chloride]
- mES DsRed reporters ([4]; Hendriks et al. 2011): Pos.
- In vivo genotoxicity [5, 12]: Pos.
- In vitro genotoxicity [6]: Pos.
- Srxn1-GFP reporter induction [7]: Specific activation; also recorded: highly responsive
- Srxn1-GFP reporter induction ([7]; listed as CdCl2): strong, concentration-dependent increase in expression of the GFP reporter
- Ames test [8]: Pos.
- Bscl2-GFP/Srxn1-GFP GFP Induction [3]: Pos. (considered positive when exposure to at least two different concentrations of a compound resulted in >1.5 fold induction of GFP expression)
- Bscl2-GFP/Srxn1-GFP Prim. toxic properties [3, 13]: Pro-oxidant

Compound: Cc1cccc(Nc2cc(Cl)nc(SCC(=O)O)n2)c1C [Wyeth-14,643]
- DsRed reporter expression/activation [9]: did not induce any reporter activation

Compound: O=S(=O)([O-])[O-].[Cu+2] [Copper sulfate]
- Bscl2-GFP reporter induction [1]: not induced
- Srxn1-GFP reporter induction [2]: strong, concentration-dependent increase in expression of the GFP reporter
- Bscl2-GFP/Srxn1-GFP GFP Induction [3]: Pos. (key: Pos.: considered positive when exposure to at least two different concentrations of a compound resulted in >1.5 fold induction of GFP expression)
- Bscl2-GFP/Srxn1-GFP Prim. toxic properties [3]: Pro-oxidant
- GFP expression in Srxn1, Bscl2 and Btg2 GFP reporter cell lines [3]: increased

Compound: Cc1c2ccccc2c(C)c2c1ccc1ccccc12 [dimethylbenz(a)antracene]
- Bscl2-GFP reporter induction with metabolic activation ([10]; 3 h with/without S9 rat liver extract, GFP after 24 h, flow cytometry): induced expression of the Bscl2-GFP reporter only when incubated in the presence of rat S9 mix
- survival of Bscl2-GFP reporter cells after S9-dependent activation ([10]; fraction of intact cells, flow cytometry): reduced survival

Compound: O=P1(N(CCCl)CCCl)NCCCO1 (stereo not shown) [cyclophosphamide]
- survival of Bscl2-GFP reporter cells after S9-dependent activation [1]: reduced survival
- Bscl2-GFP reporter induction with metabolic activation ([1]; mouse): induced expression of the Bscl2-GFP reporter only when incubated in the presence of rat S9 mix

Compound: CCOC(=O)/C=C\C(=O)OCC [Diethyl maleate]
- DsRed reporter expression/activation [9]: clear induction of DsRed expression
- mES DsRed reporters ([4]; Hendriks et al. 2011): Pos.
- Srxn1-GFP reporter induction (mRNA) [2]: highly induced
- exposure time after which Srxn1-GFP expression reached a plateau ([7]; 100 uM DEM, live cell imaging): 24 h
- exposure time after which Srxn1-GFP expression was clearly detectable ([7]; 100 uM DEM, live cell imaging): 8 h
- Bscl2-GFP/Srxn1-GFP Prim. toxic properties [3]: Pro-oxidant
- GFP expression in Srxn1, Bscl2 and Btg2 GFP reporter cell lines [3]: increased

Compound: N.N.[Cl][Pt][Cl] [Cisplatin]
- time at which Bscl2-GFP expression became visible ([10]; 5 uM CisPt, live cell imaging): 12 h
- DsRed reporter expression/activation [9]: clear induction of DsRed expression
- mRNA expression of Ephx1-DsRed reporter and endogenous Ephx1 gene ([9]; quantitative RT-PCR, up to 24 h): transcriptionally activated
- mES DsRed reporters ([4]; Hendriks et al. 2011): Pos.
- Srxn1-GFP reporter induction, live cell imaging ([7]; 5 uM CisPt or 100 uM DEM, up to 24 h): hardly responsive
- Srxn1-GFP reporter induction ([7]; listed as CisPt): also induced by the genotoxic compounds, albeit to a lesser extent; also recorded: slightly activated
- Srxn1-GFP reporter induction (mRNA) ([7]; quantitative RT-PCR, 8 or 16 h): somewhat responsive
- Bscl2-GFP/Srxn1-GFP GFP Induction [3]: Pos. (considered positive when exposure to at least two different concentrations of a compound resulted in >1.5 fold induction of GFP expression)
- GFP expression in Srxn1, Bscl2 and Btg2 GFP reporter cell lines ([3]; BAC TransgeneOmics lines, 30 hrs exposure, flow cytometry): increased

Compound: COc1cc2c(c(OC)c1OC)-c1c(cc3c(c1OC)OCO3)CC(C)C(C)C2 (stereo not shown) [schisandrin B]
- effect on Bscl2-GFP reporter activation by CisPt or Aph ([10]; flow cytometry): almost completely be repressed
- effect on phosphorylation of Kap1, Chk1 and p53 in response to CisPt and Aph [11]: diminished Chk1 and p53 phosphorylation

Compound: COc1cc([C@@H]2c3cc4c(cc3[C@@H](O[C@@H]3O[C@@H]5CO[C@@H](C)O[C@H]5[C@H](O)[C@H]3O)[C@H]3COC(=O)[C@H]23)OCO4)cc(OC)c1O [Etoposide]
- In vivo genotoxicity [5, 12]: Pos.
- In vitro genotoxicity [6]: Pos.
- Srxn1-GFP reporter induction [2]: also induced by the genotoxic compounds, albeit to a lesser extent
- Bscl2-GFP/Srxn1-GFP Prim. toxic properties [3]: Genotoxin

Compound: aflatoxin B1
- Bscl2-GFP reporter induction with metabolic activation [10]: induced expression of the Bscl2-GFP reporter only when incubated in the presence of rat S9 mix

Compound: O=c1cc(-c2cccc3c2Sc2ccccc2S3)oc(N2CCOCC2)c1 [ku55933]
- effect on Bscl2-GFP reporter activation by CisPt or Aph ([10]; flow cytometry): unaffected
- effect on phosphorylation of Kap1, Chk1 and p53 in response to CisPt and Aph [11]: prevented phosphorylation of Kap1 and p53

Compound: CN[C@@H]1C[C@H]2O[C@@](C)([C@@H]1OC)n1c3ccccc3c3c4c(c5c6ccccc6n2c5c31)C(=O)N[C@@H]4O [UCN-01]
- effect on Bscl2-GFP reporter activation by CisPt or Aph ([10]; flow cytometry): almost completely be repressed

Compound: CC/C(=C(/CC)c1ccc(O)cc1)c1ccc(O)cc1 [diethylstilbestrol]
- DsRed reporter expression/activation [9]: did not induce any reporter activation

Compound: O=[As]O [Sodium arsenite]
- Bscl2-GFP reporter induction ([10]; flow cytometry): hardly responded
- Bscl2-GFP reporter induction ([10]; flow cytometry, listed as NaAsO2): not induced
- mES DsRed reporters ([4]; Hendriks et al. 2011): Pos.
- In vivo genotoxicity [5, 12]: Pos.
- In vitro genotoxicity [6]: Pos.
- Srxn1-GFP reporter induction [7]: Specific activation; also recorded: highly responsive
- Srxn1-GFP reporter induction ([7]; listed as NaAsO2): strong, concentration-dependent increase in expression of the GFP reporter; also recorded: preferentially induced
- Ames test [8, 12]: Neg.
- Bscl2-GFP/Srxn1-GFP GFP Induction [3]: Pos. (considered positive when exposure to at least two different concentrations of a compound resulted in >1.5 fold induction of GFP expression)
- Bscl2-GFP/Srxn1-GFP Prim. toxic properties [3, 13]: Pro-oxidant

Compound: C[C@@]1(CO)[C@H](O)CC[C@@]2(C)[C@H]1CC[C@H]1C[C@@H]3C[C@@]12CC[C@]3(O)CO [Aph, aphidicolin]
- Bscl2-GFP reporter induction ([10]; flow cytometry): significant induction of GFP expression
- Srxn1-GFP reporter induction [7]: slight reporter activation; also recorded: slightly activated

Compound: COS(C)(=O)=O [MMS, methyl methanesulphonate]
- DsRed reporter expression/activation [9]: clear induction of DsRed expression
- mES DsRed reporters [4]: Pos.
- In vivo genotoxicity ([5]; in vivo): Pos.
- Ames test [8, 12]: Pos.
- Bscl2-GFP/Srxn1-GFP GFP Induction [3]: Pos. (considered positive when exposure to at least two different concentrations of a compound resulted in >1.5 fold induction of GFP expression)
- Bscl2-GFP/Srxn1-GFP Prim. toxic properties [3, 13]: Pro-oxidant

Compound: COc1cccc2c1C(=O)c1c(O)c3c(c(O)c1C2=O)C[C@@](O)(C(=O)CO)C[C@@H]3O[C@H]1C[C@H](N)[C@H](O)[C@H](C)O1 [Doxorubicin]
- mES DsRed reporters ([4]; Hendriks et al. 2011): Pos.
- In vivo genotoxicity [5, 12]: Pos.
- In vitro genotoxicity [6]: Pos.
- Srxn1-GFP reporter induction [2]: also induced by the genotoxic compounds, albeit to a lesser extent
- Ames test [8, 12]: Pos.
- Bscl2-GFP/Srxn1-GFP Prim. toxic properties [3]: Genotoxin
- GFP expression in Srxn1, Bscl2 and Btg2 GFP reporter cell lines [3]: increased
